The NIST ThermoML archive (doi:10.1021/acs.jced.8b00554)

Assays:
[1] = refractive index (Na D-line) (dimensionless); conditions: 293.15 K; 101.33 kPa; Liquid; Standard Abbe refractometry
[2] = Liquid, Vibrating tube method

CCCCCCCCC [nonane]
Conditions | refractive index
[1] | 1.4056

[2]
Conditions | mass density [kg/m3]
313.15 K, 100 kPa | 701.49
313.15 K, 1050 kPa | 702.34
313.15 K, 2030 kPa | 703.25
313.15 K, 3030 kPa | 704.17
313.15 K, 4040 kPa | 705.07
313.15 K, 5050 kPa | 705.96
313.15 K, 5980 kPa | 706.78
313.15 K, 7050 kPa | 707.7
313.15 K, 8060 kPa | 708.56
313.15 K, 9060 kPa | 709.4
313.15 K, 10070 kPa | 710.23
313.15 K, 11050 kPa | 710.92
313.15 K, 12030 kPa | 711.71
313.15 K, 13030 kPa | 712.51
313.15 K, 14040 kPa | 713.3
313.15 K, 15050 kPa | 714.09
313.15 K, 15980 kPa | 714.8
313.15 K, 17050 kPa | 715.61
313.15 K, 18060 kPa | 716.36
313.15 K, 19060 kPa | 717.1
313.15 K, 20070 kPa | 717.83
323.15 K, 100 kPa | 693.34
323.15 K, 1030 kPa | 694.03
323.15 K, 2040 kPa | 695.02
323.15 K, 3030 kPa | 695.98
323.15 K, 4040 kPa | 696.94
323.15 K, 5040 kPa | 697.88
323.15 K, 6040 kPa | 698.81
323.15 K, 7050 kPa | 699.74
323.15 K, 8060 kPa | 700.65
323.15 K, 9060 kPa | 701.55
323.15 K, 10060 kPa | 702.43
323.15 K, 11030 kPa | 703.16
323.15 K, 12040 kPa | 704.02
323.15 K, 13030 kPa | 704.87
323.15 K, 14040 kPa | 705.71
323.15 K, 15040 kPa | 706.54
323.15 K, 16040 kPa | 707.35
323.15 K, 17050 kPa | 708.16
323.15 K, 18060 kPa | 708.96
323.15 K, 19060 kPa | 709.74
323.15 K, 20060 kPa | 710.52
333.15 K, 100 kPa | 685.03
333.15 K, 1030 kPa | 685.98
333.15 K, 2020 kPa | 687
333.15 K, 3020 kPa | 688.03
333.15 K, 4020 kPa | 689.05
333.15 K, 5030 kPa | 690.05
333.15 K, 6030 kPa | 691.03
333.15 K, 7030 kPa | 692
333.15 K, 8040 kPa | 692.97
333.15 K, 9040 kPa | 693.91
333.15 K, 10050 kPa | 694.85
333.15 K, 11030 kPa | 695.64
333.15 K, 12020 kPa | 696.54
333.15 K, 13020 kPa | 697.44
333.15 K, 14020 kPa | 698.32
333.15 K, 15030 kPa | 699.2
333.15 K, 16030 kPa | 700.06
333.15 K, 17030 kPa | 700.91
333.15 K, 18040 kPa | 701.76
333.15 K, 19040 kPa | 702.59
333.15 K, 20050 kPa | 703.42
343.15 K, 100 kPa | 677.18
343.15 K, 1000 kPa | 678.15
343.15 K, 2010 kPa | 679.25
343.15 K, 3010 kPa | 680.33
343.15 K, 4020 kPa | 681.41
343.15 K, 5030 kPa | 682.46
343.15 K, 6030 kPa | 683.5
343.15 K, 7040 kPa | 684.52
343.15 K, 8040 kPa | 685.53
343.15 K, 9050 kPa | 686.53
343.15 K, 10050 kPa | 687.51
343.15 K, 11000 kPa | 688.33
343.15 K, 12010 kPa | 689.29
343.15 K, 13010 kPa | 690.24
343.15 K, 14020 kPa | 691.18
343.15 K, 15030 kPa | 692.1
343.15 K, 16030 kPa | 693.01
343.15 K, 17040 kPa | 693.91
343.15 K, 18040 kPa | 694.8
343.15 K, 19050 kPa | 695.68
343.15 K, 20050 kPa | 696.54
353.15 K, 100 kPa | 669.55
353.15 K, 1000 kPa | 670.57
353.15 K, 2000 kPa | 671.72
353.15 K, 3010 kPa | 672.85
353.15 K, 4010 kPa | 673.98
353.15 K, 5020 kPa | 675.08
353.15 K, 6020 kPa | 676.17
353.15 K, 7020 kPa | 677.25
353.15 K, 8030 kPa | 678.31
353.15 K, 9030 kPa | 679.35
353.15 K, 10040 kPa | 680.39
353.15 K, 11000 kPa | 681.26
353.15 K, 12000 kPa | 682.26
353.15 K, 13010 kPa | 683.26
353.15 K, 14010 kPa | 684.23
353.15 K, 15020 kPa | 685.21
353.15 K, 16020 kPa | 686.16
353.15 K, 17020 kPa | 687.1
353.15 K, 18030 kPa | 688.03
353.15 K, 19030 kPa | 688.95
353.15 K, 20040 kPa | 689.86
363.15 K, 100 kPa | 662.05
363.15 K, 990 kPa | 663.2
363.15 K, 2000 kPa | 664.41
363.15 K, 3010 kPa | 665.6
363.15 K, 4010 kPa | 666.77
363.15 K, 5020 kPa | 667.93
363.15 K, 6020 kPa | 669.07
363.15 K, 7030 kPa | 670.19
363.15 K, 8030 kPa | 671.3
363.15 K, 9040 kPa | 672.4
363.15 K, 10040 kPa | 673.47
363.15 K, 10990 kPa | 674.38
363.15 K, 12000 kPa | 675.44
363.15 K, 13010 kPa | 676.48
363.15 K, 14010 kPa | 677.5
363.15 K, 15020 kPa | 678.52
363.15 K, 16020 kPa | 679.51
363.15 K, 17030 kPa | 680.5
363.15 K, 18030 kPa | 681.47
363.15 K, 19040 kPa | 682.43
363.15 K, 20040 kPa | 683.38
